Assay results published in PubChem BioAssay AID328 (DTP/NCI, 2004).
“And” between values parts separate entries of the source, which are not always exact repeats. Equal values may be shown once. Toxic doses and inconclusive results are not listed. Non-standard residues stand in square brackets, D forms with d. Residues, ends and D or L forms follow the SMILES beside them. ξ: configuration not given here. *: point of attachment. Boc = CC(C)(C)OC(=O)*; ξP = O=C(O)C1CCCN1

Tested on: BDF1 mice, P388 leukemia ip, median survival T/C
Assay: NCI In Vivo Anticancer Drug Screen. Data for tumor model P388 Leukemia (intraperitoneal) in B6D2F1 (BDF1) mice
Settings: endpoint: median survival time, higher = longer survival
Outline: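 Antitumour effect was judged in vivo: survival in drug-treated mice, normalised to that of vehicle-dosed controls, gives the reported T/C.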

[1] = dose: 12.5 mg/kg/injection, schedule: Q01DX009 (ip), vehicle: saline with Tween-80
[2] = dose: 25.0 mg/kg/injection, schedule: Q01DX009 (ip), vehicle: saline with Tween-80
[3] = dose: 50.0 mg/kg/injection, schedule: Q01DX009 (ip), vehicle: saline with Tween-80
[4] = dose: 100.0 mg/kg/injection, schedule: Q01DX009 (ip), vehicle: saline sonified
[5] = dose: 100.0 mg/kg/injection, schedule: Q04DX003 (ip), vehicle: saline sonified
[6] = dose: 200.0 mg/kg/injection, schedule: Q01DX009 (ip), vehicle: saline sonified
[7] = dose: 200.0 mg/kg/injection, schedule: Q01DX009 (ip), vehicle: saline
[8] = dose: 12.5 mg/kg/injection, schedule: Q01DX009 (ip), vehicle: saline
[9] = dose: 25.0 mg/kg/injection, schedule: Q01DX009 (ip), vehicle: saline
[10] = dose: 25.0 mg/kg/injection, schedule: Q04DX003 (ip), vehicle: saline
[11] = dose: 50.0 mg/kg/injection, schedule: Q04DX003 (ip), vehicle: saline
[12] = dose: 100.0 mg/kg/injection, schedule: Q04DX003 (ip), vehicle: saline
[13] = dose: 200.0 mg/kg/injection, schedule: Q04DX003 (ip), vehicle: saline
[14] = dose: 100.0 mg/kg/injection, schedule: Q04DX003 (ip), vehicle: Klucel (hydroxypropylcellulose) (HPC)
[15] = dose: 200.0 mg/kg/injection, schedule: Q04DX003 (ip), vehicle: Klucel (hydroxypropylcellulose) (HPC)
[16] = dose: 400.0 mg/kg/injection, schedule: Q04DX003 (ip), vehicle: Klucel (hydroxypropylcellulose) (HPC)
[17] = dose: 6.25 mg/kg/injection, schedule: Q01DX009 (ip), vehicle: saline
[18] = dose: 50.0 mg/kg/injection, schedule: Q01DX009 (ip), vehicle: saline
[19] = dose: 50.0 mg/kg/injection, schedule: Q04DX003 (ip), vehicle: saline with Tween-80
[20] = dose: 100.0 mg/kg/injection, schedule: Q04DX003 (ip), vehicle: saline with Tween-80
[21] = dose: 100.0 mg/kg/injection, schedule: Q01DX009 (ip), vehicle: Klucel (hydroxypropylcellulose) (HPC)

For `CC1(C)N=C(N)N=C(N)N1c1ccc(CCC(=O)Nc2ccc(S(=O)(=O)F)cc2)cc1`, the T/C (dose: 0.88 mg/kg/injection, schedule: Q01DX009 (ip), vehicle: saline with Tween-80) was 108 % of control, the T/C (dose: 1.32 mg/kg/injection, schedule: Q01DX009 (ip), vehicle: saline with Tween-80) was 112 % of control and the T/C (dose: 2.0 mg/kg/injection, schedule: Q01DX009 (ip), vehicle: saline with Tween-80) was 116 % of control. The T/C [1] was 150 % of control, the T/C [2] was 163 % of control and the T/C (dose: 44.0 mg/kg/injection, schedule: Q04DX003 (ip), vehicle: saline sonified) was 122 % of control. The T/C [3] was 159 % of control, the T/C (dose: 66.0 mg/kg/injection, schedule: Q04DX003 (ip), vehicle: saline sonified) was 111 % of control and the T/C [4] was 240 % of control. For the same compound, the T/C [5] was 111 % of control, the T/C (dose: 150.0 mg/kg/injection, schedule: Q04DX003 (ip), vehicle: saline sonified) was 122 % of control and the T/C [6] was 95 % of control. For the same compound, the T/C (dose: 400.0 mg/kg/injection, schedule: Q01DX009 (ip), vehicle: saline sonified) was 90 % of control.

`CC(=O)N(NC(=O)c1ccccn1)C(C)=O` was tested, and the T/C (dose: 50.0 mg/kg/injection, schedule: Q01DX009 (ip), vehicle: saline sonified) was 86 % of control, the T/C (dose: 50.0 mg/kg/injection, schedule: Q04DX003 (ip), vehicle: saline sonified) was 104 % of control and the T/C [4] was 95 % of control. The T/C [5] was 90 % of control, the T/C [6] was 91 % of control and the T/C (dose: 200.0 mg/kg/injection, schedule: Q04DX003 (ip), vehicle: saline sonified) was 104 % of control.

In the case of `COC12C(COC(N)=O)C3=C(C(=O)C(C)=C(N4CC4)C3=O)N1CC1NC12` (stereo not drawn), the T/C (dose: 0.21 mg/kg/injection, schedule: Q04DX003 (ip), vehicle: saline with Tween-80) is reported as 235 % of control, the T/C (dose: 0.33 mg/kg/injection, schedule: Q04DX003 (ip), vehicle: saline with Tween-80) is reported as 200 % of control and the T/C (dose: 0.5 mg/kg/injection, schedule: Q04DX003 (ip), vehicle: saline with Tween-80) is reported as 190 % of control. The T/C (dose: 0.75 mg/kg/injection, schedule: Q04DX003 (ip), vehicle: saline with Tween-80) was 255 % of control.

`CNC(=O)NCCOC(=O)NC` was tested, and the T/C [7] was 100 % of control and the T/C (dose: 400.0 mg/kg/injection, schedule: Q01DX009 (ip), vehicle: saline) was 100 % of control.

`NCCO/C=C/C(N)C(=O)O` (stereo not drawn) was tested, and the T/C (dose: 4.0 mg/kg/injection, schedule: Q01DX009 (ip), vehicle: saline) was 99 % of control, the T/C (dose: 6.0 mg/kg/injection, schedule: Q01DX009 (ip), vehicle: saline) was 100 % of control and the T/C (dose: 9.0 mg/kg/injection, schedule: Q01DX009 (ip), vehicle: saline) was 93 % of control. For the same compound, the T/C [8] was 104 % of control and the T/C [9] was 107 % of control.

`CC1=C(C(=O)OCc2ccccc2)C(c2ccc(Cl)cc2)C(C(=O)OCc2ccccc2)=C(C)N1` was tested, and the T/C (dose: 12.5 mg/kg/injection, schedule: Q01DX009 (ip), vehicle: other) was 100 % of control, the T/C (dose: 25.0 mg/kg/injection, schedule: Q01DX009 (ip), vehicle: other) was 94 % of control and the T/C (dose: 50.0 mg/kg/injection, schedule: Q01DX009 (ip), vehicle: other) was 90 % of control. The T/C (dose: 100.0 mg/kg/injection, schedule: Q01DX009 (ip), vehicle: other) was 89 % of control and the T/C (dose: 200.0 mg/kg/injection, schedule: Q01DX009 (ip), vehicle: other) was 90 % of control.

With `Cc1ccc(C(=O)CCl)c(C)c1` the T/C [1] was 100 % of control, the T/C [2] was 100 % of control and the T/C [3] was 95 % of control.

For `Nc1nc(=O)n(C2OC(CO)C(O)C2O)c2scnc12` (stereo not drawn), the T/C [10] was 108 % of control, the T/C [11] was 118 % of control and the T/C [12] was 118 % of control. For the same compound, the T/C [13] was 108 % of control.

`CN(C)P(N)(N)=O` was tested, and the T/C [14] was 100 % of control, the T/C [15] was 100 % of control and the T/C [16] was 95 % of control.

`COc1ccc(/C=C/[N+](=O)[O-])cc1O` was tested, and the T/C [17] was 106 % of control, the T/C [8] was 115 % of control and 121 % of control and the T/C (dose: 12.5 mg/kg/injection, schedule: Q04DX003 (ip), vehicle: saline) was 113 % of control. For the same compound, the T/C [9] was 111 % of control and 121 % of control, the T/C [10] was 113 % of control and the T/C [18] was 95 % of control and 123 % of control. For the same compound, the T/C [11] was 114 % of control and 122 % of control and the T/C [12] was 114 % of control and 122 % of control.

In the case of `COC(=O)c1ccccc1NC(=O)CCl`, the T/C [19] is reported as 100 % of control and the T/C [20] is reported as 87 % of control.

With `Cn1cnc([N+](=O)[O-])c1[Se]c1ncnc2c1ccn2C1OC(CO)C(O)C1O` (stereo not drawn) the T/C [17] was 107 % of control, the T/C [8] was 88 % of control and the T/C [9] was 102 % of control. The T/C [12] was 100 % of control and the T/C [13] was 104 % of control.

`CCCCCC(C)(C)O` was tested, and the T/C [18] was 95 % of control, the T/C (dose: 100.0 mg/kg/injection, schedule: Q01DX009 (ip), vehicle: saline) was 104 % of control and the T/C [12] was 112 % of control. The T/C [7] was 104 % of control and the T/C [13] was 100 % of control.

In the case of `CC1C[N+](C)(C)N=C1[O-]` (stereo not drawn), the T/C (dose: 100.0 mg/kg/injection, schedule: Q01DX001 (ip), vehicle: saline) is reported as 109 % of control, the T/C (dose: 200.0 mg/kg/injection, schedule: Q01DX001 (ip), vehicle: saline) is reported as 90 % of control and the T/C (dose: 400.0 mg/kg/injection, schedule: Q01DX001 (ip), vehicle: saline) is reported as 109 % of control.

In the case of `CCOC(=O)C(/C=N/C(N)=O)=C(\C)O`, the T/C [21] is reported as 87 % of control, the T/C [14] is reported as 100 % of control and the T/C (dose: 200.0 mg/kg/injection, schedule: Q01DX009 (ip), vehicle: Klucel (hydroxypropylcellulose) (HPC)) is reported as 95 % of control. For the same compound, the T/C [15] was 95 % of control, the T/C (dose: 400.0 mg/kg/injection, schedule: Q01DX009 (ip), vehicle: Klucel (hydroxypropylcellulose) (HPC)) was 87 % of control and the T/C [16] was 95 % of control.

With `CCCCCCCCCCCCCCCCCOC(=O)CCCCCCCCCCCCCCCCC` the T/C (dose: 25.0 mg/kg/injection, schedule: Q04DX003 (ip), vehicle: saline with Tween-80) was 105 % of control, the T/C [19] was 105 % of control and the T/C [20] was 100 % of control.

With `CC1CCC(C)C1NC1=NCCO1` (stereo not drawn) the T/C (dose: 6.25 mg/kg/injection, schedule: Q01DX009 (ip), vehicle: saline with Tween-80) was 109 % of control, the T/C [1] was 100 % of control and the T/C [2] was 104 % of control.

With `O=S1(=O)C=CCCC=C1` the T/C (dose: 50.0 mg/kg/injection, schedule: Q01DX009 (ip), vehicle: Klucel (hydroxypropylcellulose) (HPC)) was 100 % of control and the T/C [21] was 89 % of control.

For `CN(C)C(c1ccccc1)C(CBr)C(=O)c1ccc(Br)cc1` (stereo not drawn), the T/C [17] was 110 % of control, the T/C (dose: 16.5 mg/kg/injection, schedule: Q01DX009 (ip), vehicle: saline) was 109 % of control and 116 % of control and the T/C [9] was 100 % of control and 118 % of control. The T/C (dose: 27.5 mg/kg/injection, schedule: Q04DX003 (ip), vehicle: saline) was 104 % of control, the T/C (dose: 37.5 mg/kg/injection, schedule: Q01DX009 (ip), vehicle: saline) was 113 % of control and 120 % of control and the T/C (dose: 55.0 mg/kg/injection, schedule: Q04DX003 (ip), vehicle: saline) was 100 % of control.

In the case of `COC(=O)CNC(=O)C1CCCN1C(=O)OC(C)(C)C` (stereo not drawn) (Boc-[ξP]-Gly-OMe), the T/C [12] is reported as 100 % of control, the T/C [13] is reported as 105 % of control and the T/C (dose: 400.0 mg/kg/injection, schedule: Q04DX003 (ip), vehicle: saline) is reported as 95 % of control.

For `CC(C)CC(NC(=O)CF)C(=O)O` (stereo not drawn), the T/C (dose: 2.5 mg/kg/injection, schedule: Q01DX009 (ip), vehicle: saline) was 111 % of control.

For `Cc1ccc(NS(=O)(=O)c2ccc(Br)cc2)c(C)c1`, the T/C [20] was 100 % of control, the T/C (dose: 200.0 mg/kg/injection, schedule: Q04DX003 (ip), vehicle: saline with Tween-80) was 100 % of control and the T/C (dose: 400.0 mg/kg/injection, schedule: Q04DX003 (ip), vehicle: saline with Tween-80) was 104 % of control.

With `CC(C)NC(=O)c1ccccc1S(=O)(=O)c1ccccc1C(=O)NC(C)C` the T/C (dose: 100.0 mg/kg/injection, schedule: Q01DX001 (ip), vehicle: saline with Tween-80) was 108 % of control, the T/C (dose: 200.0 mg/kg/injection, schedule: Q01DX001 (ip), vehicle: saline with Tween-80) was 100 % of control and the T/C (dose: 400.0 mg/kg/injection, schedule: Q01DX001 (ip), vehicle: saline with Tween-80) was 100 % of control.
